Drawing on BindingDB's records for doi:10.1016/j.bmcl.2012.06.057 (Sanofi-Aventis Deutschland, 2012), this text covers IC50 for 3 molecules.

A short description of test [1]: Antagonist activity at LPA5 receptor in human isolated platelets assessed as inhibition of hexadecyl-LPA-induced platelet aggregation after 3 mins.
Test [2] is described as follows: Antagonist activity at LPA2 receptor in human isolated platelets assessed as inhibition of TRAP-induced platelet aggregation after 3 mins.

SMILES strings stand for the structures. A value given as a limit tells only on which side of the number the result lay.

For `Cc1csc2c(N[C@@H](C)CN3CCN(S(=O)(=O)c4ccc(Cl)c(Cl)c4)CC3)ncnc12`, the 50% inhibitory concentration (IC50) in test [1] was greater than 30 µM.

For `COc1cccc(-n2nc(C(=O)O)cc2-c2ccc(C3CCCCC3)c(Cl)c2)c1`, the figures for the IC50 in test [2] and in test [1] were greater than 10 µM and 2.2 µM, respectively.

In the case of `Cc1noc(-c2ccc(CSCCC(=O)O)cc2)c1NC(=O)OC(C)c1ccccc1Cl` (centres undefined) [3-(4-(4-((1-(2-chlorophenyl)ethoxy)carbonylamino)-3-methylisoxazol-5-yl)benzylthio)propanoic acid], the concentration for half-maximal inhibition (IC50) in test [1] was greater than 30 µM.
